Literature values as cited in US10835570B2, “Dietary supplement” (priority 2016, dated 2020).

Test system: receptors ERb and ERa
Details: oestrogen-like affinity, ERb versus ERa

For `O=c1c(-c2ccc(O)cc2)coc2cc(O)cc(O)c12` [genistein], the “affinity greater for receptors ERb than for receptors ERa” value is given as 20 times.
